From patent US20250034182A1, “PHOSPHOLIPID COMPOUNDS AND METHODS OF MAKING AND USING THE SAME” (priority 2021, published 2025)

Tests used:
Type in all cases: cell-based
[1] = tested on: Recombinant Respiratory Syncytial virus strain A2 containing the firefly luciferase reporter (RSV-Fluc) in NHBE cells; experiment: RSV NHBE FLuc EC50 (Example I); settings: human respiratory syncytial virus, 72 h, read-out: RSV NHBE FLuc EC50 (nM) (per Ex. I)
From the text: Normal human bronchial epithelial (NHBE) cells are purchased from Lonza (Walkersville, MD Cat #CC-2540) and maintained in Bronchial Epithelial Cell Growth Medium (BEGM) (Lonza, Walkersville, MD, Cat #CC-3170) with all provided supplements in the BulletKit. Cells are passaged 2-3 times per week to maintain sub-confluent densities and are used for experiments at passages 2-4.
Recombinant Respiratory Syncytial virus strain A2 containing the firefly luciferase reporter between the P and M genes (RSV-Fluc, 6.3×10^6 TCID50/mL) is purchased from Viratree (Durham, NC, Cat #R^145).
NHBE cells (5×10^3/well) are seeded in 100 μL white wall/clear bottom 96-well plates (Corning) with culture medium and are incubated for 24 hours at 37° C. with 5% CO2. On the following day, three-fold serial dilutions of compounds prepared in DMSO are added to the wells using the HP D300e digital dispenser with normalization to the highest concentration of DMSO in all wells. The cells are then infected with RSV-Fluc diluted with BEGM media at an MOI of 0.1 for a final volume of 200 μL media/well. Uninfected and untreated wells are included as controls to determine compound efficacy against RSV-Fluc. Following incubation with compound and virus for three days at 37° C. with 5% CO2, 100 μL of culture supernatant is removed from each well and replaced with 100 μL of ONE-Glo luciferase reagent (Promega, Madison, WI, Cat #E6110). The plates are gently mixed by rocking for 10 minutes at 21° C. and luminescence signal is measured using an Envision plate reader (PerkinElmer). Values are normalized to the uninfected and infected DMSO controls (0% and 100% infection, respectively). Non-linear regression analysis is applied to determine the compound concentration at which 50% luminescence signal is reduced (EC50) using the XLfit4 add-in for MICROSOFT®EXCEL®. All experiments are performed in duplicate with two technical repeats each.

[2] = tested on: Respiratory syncytial virus recombinant with luciferase (RSV-Luc5) in HEp-2 cells; experiment: HEp-2 RSV-Luc5 384-well assay (EC50 RSVFLUC Hep2-384, Example R); settings: human respiratory syncytial virus, HEp-2, 72 h, read-out: RSV Hep-2 FLuc EC50 (nM) (per Ex. R)
From the text: (§1) HEp-2 cell line was purchased from ATCC (Manassas, VA Cat #CCL-23) and maintained in Dulbecco's […] (DMEM) (Corning, New York, NY, Cat #15-018CM) supplemented with 10% fetal bovine serum (FBS) (Hyclone, Logan, UT, Cat #SH30071-03) and 1× Penicillin-Streptornycin-L-Glutamine (Corning, New York, NY, Cat #30-009-CI). Cells were passaged 2 times per week to maintain sub-confluent densities and were used for experiments at passage 5-20. Respiratory syncytial virus recombinant with luciferase (RSV-Luc5) direct pelleted virus (≥1×107 TCID50/ml) was purchased from Microbiologics (Saint Cloud, MN). Viral replication was determined in HEp-2 cells in the following manner.
Compounds are prepared in 384-well polypropylene plates (Greiner, Monroe, NC, Cat #784201) with 8 compounds per plate in grouped replicates of 4 at 10 serially diluted concentrations (1:3).
HEp-2 cells were suspended in DMEM (supplemented with 10% FBS and 1×Penicillin-Streptonycin-L-Glutimine) and 60 μL of 4,000 cells per well were seeded into 384-well plates (Greiner, Monroe, NC, Cat #781080) using Biotek MultiFlo dispenser. After overnight incubation at 37° C. and 5% CO2, 0.4 uL of three-fold serial dilutions of compound was added to each well using a Biomek FX pipette station. RSV-Luc5 viruses were diluted in DMEM (supplemented with 10% FBS and 1× Penicillin-Streptonycin-L-Glutainie) at an MOI=0.5. Virus suspension was added to each 384-well compound plate at 20 uL per well using a Biotek MultiFlo dispenser. The assay plates were incubated for 3 days at 37° C. and 5% CO2. At the end of incubation, One-Glo reagent (Promega, Madison, WI, Cat #E6120) was prepared. The assay plate and the reagent were equilibrated to room temperature for 30 minutes. 50 uL per well of medium was removed from assay plate and 40 uL per well of One-Glo reagent was added to each plate by Biomek FX. The plates were sat at room temp for 15 minutes. Viral replication was then assessed by measuring luminescence signal using and Envision plate reader. Remdesivir was used as positive control and DMSO was used as negative control. Values were normalized to the positive and negative controls (as 0% and 100% replication, respectively) and data was fitted using non-linear regression analysis by Gilead's dose response tool. The EC50 value for each compound was then determined as the concentration reducing the viral replication by 50%.

[3] = tested on: Respiratory syncytial virus recombinant with luciferase (RSV-Luc5) in HEp-2 cells; experiment: HEp-2 RSV-Luc5 384-well assay (EC50 RSVFLUC Hep2-384 v2, Example V); settings: human respiratory syncytial virus, HEp-2, 72 h, read-out: RSV Hep-2 FLuc EC50 (v2) (nM) (per Ex. V)
From the text: as §1, with “Penicillin-Streptonycin-L-Glutamine” for “Penicillin-Streptornycin-L-Glutamine”, “(RSV-Luc5)” for “(RSV-Luc5) direct pelleted virus”
Compounds are prepared in 100% DMSO in 384-well polypropylene plates (Greiner, Monroe, NC, Cat #784201) with 8 compounds per plate in grouped replicates of 4 at 10 serially diluted concentrations (1:3). The serially diluted compounds were transferred to low dead volume Echo plates (Labcyte, Sunnyvale, CA, Cat #LP-0200).
The test compounds were spotted to 384-well assay plates (Greiner, Monroe, NC, Cat #781091) at 200 nL per well. HEp-2 cells were harvested and suspended in DMEM (supplemented with 10% FBS and 1× Penicillin-Streptomycin-L-Glutamine) and seeded to the pre-spotted assay plates at 4,000 cells per well in 30 μL. RSV-Luc5 viruses were diluted in DMEM (supplemented with 10% FBS and 1× Penicillin-Streptomycin-L-Glucamine) at 200,000 Infectious Units (IU) per mL and 10 μL per well was added to the assay plates containing cells and compounds, for an MOI=0.5. The assay plates were incubated for 3 days at 37° C. and 5% CO2. At the end of incubation, One-Glo reagent (Promega, Madison, WI, Cat #E6120) was prepared. The assay plates and One-Glo reagent were equilibrated to room temperature for at least 15 minutes. 40 μL per well of One-Glo reagent was added and the plates were incubated at room temp for 15 minutes before reading the luminescence signal on an EnVision multimode plate reader (Perkin Elmer, Waltham, MA). Remdesivir was used as positive control and DMSO was used as negative control. Values were normalized to the positive and negative controls (as 0% and 100% replication, respectively) and data was fitted using non-linear regression analysis by Gilead's dose response tool. The EC50 value for each compound was then determined as the concentration reducing the viral replication by 50%.

[4] = RSV HEP2-CC50-384-V2 (per Ex. V); settings: human

Q: With `CCCCCCCCCCCCCCOC[C@H](COP(=O)(O)OC[C@@]1(C#N)O[C@@H](c2ccc3c(N)ncnn23)[C@H](O)[C@@H]1O)Oc1ccc(C#N)nc1` [Compound 77, ((2R,3S,4R)-5-(4-aminopyrrolo[2,1-f][1,2,4]triazin-7-yl)-2-cyano-3,4-dihydroxytetrahydrofuran-2-yl)methyl ((R)-2-((6-cyanopyridin-3-yl)oxy)-3-(tetradecyloxy)propyl) hydrogen phosphate] as the molecule, how does the EC50 [1] read?
A: 12 nM

Q: What about the EC50 [2] of the same molecule?
A: 222 nM

Q: What about the EC50 [3] of the same molecule?
A: 90 nM

Q: What about the CC50 at 3 days [4] of the same molecule?
A: > 50000 nM

Q: Which EC50 [1] does the source give for `CCCCCCCCCCCCCCCCCCC[C@H](COP(=O)(O)OC[C@@]1(C#N)O[C@@H](c2ccc3c(N)ncnn23)[C@H](O)[C@@H]1O)OCc1ccc(C#N)c(OC)c1` [Compound 27, ((2R,3S,4R)-5-(4-aminopyrrolo[2,1-f][1,2,4]triazin-7-yl)-2-cyano-3,4-dihydroxytetrahydrofuran-2-yl)methyl ((R)-2-((4-cyano-3-methoxybenzyl)oxy)henicosyl) hydrogen phosphate] here?
A: 42 nM

Q: What about the EC50 [2] of the same molecule?
A: 232 nM

Q: With `CCCCCCCCCCCCCCCCCCOC[C@H](COP(=O)(O)OC[C@@]1(C#N)O[C@@H](c2ccc3c(N)ncnn23)[C@H](O)[C@@H]1O)OCc1ccc(OC)c(C#N)c1` [Compound 9, ((2R,3S,4R,5S)-5-(4-aminopyrrolo[2,1-f][1,2,4]triazin-7-yl)-2-cyano-3,4-dihydroxytetrahydrofuran-2-yl)methyl ((R)-2-((3-cyano-4-methoxybenzyl)oxy)-3-(octadecyloxy)propyl) hydrogen phosphate] as the molecule, how does the EC50 [2] read?
A: 53 nM

Q: What about the EC50 [3] of the same molecule?
A: 145 nM

Q: What about the CC50 at 3 days [4] of the same molecule?
A: > 48500 nM

Q: Which EC50 [1] does the source give for `CCCCCCCCCCCCCCCCCCOC[C@@H](COP(=O)(O)OC[C@@]1(C#N)O[C@@H](c2ccc3c(N)ncnn23)[C@H](O)[C@@H]1O)OCc1ccc(C#N)cc1OC` [Compound 67, ((2R,3S,4R)-5-(4-aminopyrrolo[2,1-f][1,2,4]triazin-7-yl)-2-cyano-3,4-dihydroxytetrahydrofuran-2-yl)methyl ((S)-2-((4-cyano-2-methoxybenzyl)oxy)-3-(octadecyloxy)propyl) hydrogen phosphate] here?
A: 28 nM

Q: What about the EC50 [2] of the same molecule?
A: 229 nM

Q: With `CCCCCCCCCCCCCCCCCCOC[C@H](COP(=O)(O)OC[C@@]1(C#N)O[C@@H](c2ccc3c(N)ncnn23)[C@H](O)[C@@H]1O)OCc1cncc(C#N)c1` [Compound 66, ((2R,3S,4R)-5-(4-aminopyrrolo[2,1-f][1,2,4]triazin-7-yl)-2-cyano-3,4-dihydroxytetrahydrofuran-2-yl)methyl ((R)-2-((5-cyanopyridin-3-yl)methoxy)-3-(octadecyloxy)propyl) hydrogen phosphate] as the molecule, how does the EC50 [1] read?
A: 50 nM

Q: And the EC50 [2]?
A: 21 nM

Q: And the EC50 [3]?
A: 56 nM

Q: What about the CC50 at 3 days [4] of the same molecule?
A: 49100 nM

Q: With `CCCCCCCCCCCCCCCCCCOC[C@H](COP(=O)(O)OC[C@@]1(C#N)O[C@@H](c2ccc3c(N)ncnn23)[C@H](O)[C@@H]1O)Oc1cccc(C#N)c1` [Compound 50, ((2R,3S,4R,5S)-5-(4-aminopyrrolo[2,1-f][1,2,4]triazin-7-yl)-2-cyano-3,4-dihydroxytetrahydrofuran-2-yl)methyl ((R)-2-(3-cyanophenoxy)-3-(octadecyloxy)propyl) hydrogen phosphate] as the molecule, how does the EC50 [1] read?
A: 18 nM

Q: What about the EC50 [2] of the same molecule?
A: 12 nM

Q: What about the EC50 [3] of the same molecule?
A: 91 nM

Q: And the CC50 at 3 days [4]?
A: > 50000 nM
